Assay results from ChEMBL document CHEMBL1201862, “PubChem BioAssay data set” (2004).
“And” between values parts separate entries of the source, which are not always exact repeats. Equal values may be shown once.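 Dose response: 5 concentrations. Exposure: 48 h. Format: 96-well plates. Endpoint: linear interpolation; highest concentration if not reached. The concentration for 50% growth inhibition is given as GI50.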 The source made the active and inactive calls. Cut-off read from the data, not from the text of the source: active = GI50 up to about 1.1 µM and inactive = higher.

Legend:
Assay in all cases: inhibition of tumour cell growth, NCI panel, 48 h
[1] = tested on: 786-0
[2] = tested on: BT-549
[3] = tested on: EKVX
[4] = tested on: HT-29
[5] = tested on: MCF7
[6] = tested on: MDA-MB-231
[7] = tested on: Malme-3M
[8] = tested on: NCI-H226
[9] = tested on: NCI-H522
[10] = tested on: NCI/ADR-RES
[11] = tested on: SF-268
[12] = tested on: SF-295
[13] = tested on: SK-MEL-28
[14] = tested on: SK-MEL-5
[15] = tested on: SK-OV-3
[16] = tested on: SNB-19
[17] = tested on: UACC-62
[18] = tested on: UO-31
[19] = tested on: HOP-92

Measured: GI50

COc1cccc2c1CCc1sc(CN3CCN(C)CC3)nc1-2
inactive: [1] 78.5 µM | [2] > 100 µM | [3] > 100 µM | [4] 20.4 µM | [5] 26.4 µM | [6] 85.7 µM | [7] > 100 µM | [8] 59.8 µM | [9] 52.2 µM | [10] > 100 µM | [11] > 100 µM | [12] 53 µM | [13] 49.7 µM | [14] 28.1 µM | [15] > 100 µM | [16] > 100 µM | [17] 26.2 µM | [18] > 100 µM

COC1OC(COC(=O)NCCCCC(=O)C(F)(F)C(F)(F)C(F)(F)C(F)(F)C(F)(F)C(F)(F)C(F)(F)F)C(O)C(O)C1O (stereo not drawn)
inactive: [1] 16.4 µM and 16.5 µM | [2] 17.6 µM and 17.4 µM | [4] 15.8 µM and 13.5 µM | [5] 17.6 µM and 18.4 µM | [6] 23.1 µM and 23.9 µM | [7] 22.8 µM and 20.1 µM | [10] 34.5 µM and 28.4 µM | [11] 15.7 µM and 18.2 µM | [12] 20.7 µM and 19.5 µM | [13] 17.3 µM and 16.7 µM | [14] 13.1 µM and 12 µM | [15] 14.2 µM and 15.8 µM | [16] 17.8 µM and 17.9 µM | [17] 13.7 µM and 14.4 µM | [18] 16.8 µM and 17.1 µM

CCN(CC)CCN(/C(=N/c1ccccc1)N1CCOCC1)c1ccccc1
inactive: [1] > 100 µM | [2] > 100 µM | [3] > 100 µM | [4] 42.1 µM | [5] 89.3 µM | [6] > 100 µM | [7] > 100 µM | [8] > 100 µM | [9] > 100 µM | [10] > 100 µM | [11] > 100 µM | [12] > 100 µM | [13] > 100 µM | [14] > 100 µM | [15] > 100 µM | [16] > 100 µM | [17] > 100 µM | [18] > 100 µM

NCCCNCCCNCCCN
inactive: [1] > 100 µM | [2] > 100 µM | [3] > 100 µM | [4] > 100 µM | [5] > 100 µM | [6] > 100 µM | [7] > 100 µM | [8] > 100 µM | [9] 54.3 µM | [10] > 100 µM | [11] 3.48 µM | [12] > 100 µM | [13] > 100 µM | [14] > 100 µM | [15] > 100 µM | [16] > 100 µM | [17] > 100 µM | [18] > 100 µM

CN(C)C(=N)/N=C(\N)Nc1cccc(Cl)c1
inactive: [1] > 100 µM | [2] 19.5 µM | [3] > 100 µM | [4] > 100 µM | [5] 90.8 µM | [6] 46.7 µM | [7] 45.3 µM | [8] 22.3 µM | [10] > 100 µM | [11] 35.4 µM | [12] 84.1 µM | [13] > 100 µM | [14] 28.1 µM | [15] > 100 µM | [16] > 100 µM | [17] 89.1 µM | [18] 78 µM

C=C(C)[C@H]1[C@@H]2OC(=O)[C@H]1[C@]1(O)C[C@H]3OC34C(=O)O[C@H]2[C@@]41C.CC(C)(O)[C@H]1[C@@H]2OC(=O)[C@H]1[C@]1(O)C[C@H]3OC34C(=O)O[C@H]2[C@@]41C (stereo partly drawn)
inactive: [1] > 100 µM | [2] > 100 µM | [3] > 100 µM | [19] > 100 µM | [4] > 100 µM | [5] > 100 µM | [6] > 100 µM | [7] > 100 µM | [8] > 100 µM | [9] > 100 µM | [11] > 100 µM | [12] > 100 µM | [13] > 100 µM | [14] > 100 µM | [15] > 100 µM | [16] > 100 µM | [17] > 100 µM | [18] > 100 µM

N#Cc1nc(NC(=O)c2ccccc2)sc1N
inactive: [1] > 10 µM | [3] > 10 µM | [19] > 10 µM | [4] > 10 µM | [5] > 2.22 µM | [6] > 10 µM | [7] > 10 µM | [8] > 10 µM | [9] > 10 µM | [10] > 9.48 µM | [11] > 10 µM | [12] > 10 µM | [13] > 10 µM | [14] > 10 µM | [15] > 10 µM | [16] > 10 µM | [17] > 10 µM | [18] > 10 µM

COC(=O)/C=C\n1c(C)cc(=O)[nH]c1=O
inactive: [1] > 100 µM | [2] > 100 µM | [3] > 100 µM | [19] > 100 µM | [4] > 100 µM | [5] 17.1 µM | [7] > 100 µM | [8] > 100 µM | [9] > 100 µM | [10] > 100 µM | [11] > 100 µM | [12] > 100 µM | [13] > 100 µM | [14] > 100 µM | [15] 67.5 µM | [16] > 100 µM | [17] > 100 µM | [18] > 100 µM

O=c1c2sc3nc(NCCN4CCCCC4)ncc3c2ncn1-c1ccccc1
inactive: [1] 80.7 µM | [2] 85.9 µM | [19] 27.3 µM | [4] 30.5 µM | [6] > 100 µM | [7] 20.1 µM | [8] 93.8 µM | [9] 41 µM | [10] 62.5 µM | [11] 60 µM | [12] 61.8 µM | [13] 55.2 µM | [14] 19.2 µM | [15] > 100 µM | [16] 67.9 µM | [17] 82.2 µM | [18] 19.7 µM

O=C1C=CC(=O)c2c1ccc1c3ccccc3n(-c3ccccc3[N+](=O)[O-])c21
inactive: [1] 2.13 µM | [2] 4.97 µM | [3] 8.22 µM | [4] 5.2 µM | [5] 3.3 µM | [6] 2.76 µM | [7] 2.17 µM | [8] 20.2 µM | [9] 1.63 µM | [10] 5.05 µM | [11] 2.44 µM | [12] 22.6 µM | [13] 8.55 µM | [14] 6.89 µM | [15] 17 µM | [16] 9.84 µM | [17] 4.91 µM | [18] 1.44 µM

CCOC(=O)CCC(C(=O)OCC)n1nnc2cc(Nc3c(C)[n+]([O-])c4cc(F)c(OCC)cc4[n+]3[O-])ccc21 (stereo not drawn)
inactive: [1] 34.5 µM | [2] > 100 µM | [3] > 100 µM | [19] 25.6 µM | [4] > 100 µM | [5] > 100 µM | [7] > 100 µM | [8] > 100 µM | [9] > 100 µM | [10] > 100 µM | [11] 25.5 µM | [12] 40.9 µM | [14] > 100 µM | [15] > 100 µM | [16] 34.8 µM | [17] > 100 µM | [18] > 100 µM

CCOC(=O)CCc1c(C(=O)OCC)[nH]c(/C=C2\NC(=O)C(C)=C2CC)c1C
inactive: [1] 14.5 µM | [3] 22.2 µM | [19] 16.1 µM | [4] 50.7 µM | [5] 41 µM | [6] 19.8 µM | [7] 10.4 µM | [8] 36.5 µM | [9] 14.5 µM | [10] 12.9 µM | [11] 26.9 µM | [12] 17.8 µM | [13] 51.8 µM | [15] 22 µM | [17] 19.2 µM | [18] 44 µM

Cc1[nH]n(-c2ncc(C#N)c(=O)[nH]2)c(=O)c1CCO
inactive: [1] > 100 µM | [3] > 100 µM | [19] > 100 µM | [4] > 100 µM | [5] > 100 µM | [6] > 100 µM | [7] > 100 µM | [8] > 100 µM | [9] > 100 µM | [10] > 100 µM | [11] > 100 µM | [12] > 100 µM | [13] > 100 µM | [14] > 100 µM | [15] > 100 µM | [16] > 100 µM | [17] > 100 µM | [18] > 100 µM

CN(C)/C=N\c1nncc2[nH]nnc12
inactive: [1] > 100 µM | [2] > 100 µM | [3] > 100 µM | [4] > 100 µM | [5] > 100 µM | [6] > 100 µM | [8] > 100 µM | [10] > 100 µM | [11] > 100 µM | [12] > 100 µM | [13] > 100 µM | [14] > 100 µM | [16] > 100 µM | [17] > 100 µM | [18] > 100 µM

CCOC(=O)N1CC2(C(=O)OC)C=CC1C(C(=O)OC)C2 (stereo not drawn)
inactive: [1] > 100 µM | [2] > 100 µM | [3] > 100 µM | [5] > 100 µM | [6] > 100 µM | [7] > 100 µM | [8] > 100 µM | [9] > 100 µM | [10] > 100 µM | [11] > 100 µM | [12] > 100 µM | [13] > 100 µM | [14] > 100 µM | [15] > 100 µM | [16] > 100 µM | [17] > 100 µM | [18] > 100 µM
